In assay [1] the target is T1, hIno80 core complex (wild type) (Homo sapiens, UniProt Q9ULG1). Kind of assay: coupled NADH fluorescence ATPase assay (PK/LDH). To be noted: 100 nM H2A nucleosome, ATP varied, 5 mM Mg2+, 37°C; non-competitive with ATP, competitive with nucleosomes; allosteric. The assay is classed as biochemical. More on the design: gene INO80; nine-subunit core, Ino80 267-1556 with N-terminal 8-His and C-terminal twin Strep-tag II; codon-optimised genes, BTI-TN-5B1-4 insect cells (MultiBac); calculated 743583 Da, SEC-MALS 802 kDa; actin gene not specified; Actin-like protein 6A; Actin-related protein 5; Actin-related protein 8; INO80 complex subunit B; INO80 complex subunit C; RuvB-like 1; RuvB-like 2.

Assay [2] deals with T2, SC2 (Homo sapiens, UniProt Q9ULG1).
T2 construct: gene INO80; insect cells; with RuvB-like 1; RuvB-like 2
In words: coupled NADH fluorescence ATPase assay (PK/LDH). It is filed as biochemical. To be noted: 1 mM ATP, 100 nM nucleosome, 37°C.

Assay [3] addresses T1, hIno80 core complex (wild type). More on the design: gene INO80. To be noted: basal, no nucleosome; ATP:MgCl2:TRIS base 1:1:2; 37°C.
Description: coupled NADH fluorescence ATPase assay (PK/LDH) on hIno80 core complex (wild type)
Assay [4] has as its target T3, hIno80ΔIes2 complex (Homo sapiens, UniProt Q9ULG1).
T3 construct: gene INO80
To be noted: basal, no nucleosome; ATP:MgCl2:TRIS base 1:1:2; 37°C.

T2 sequence (Q9ULG1 487-1556): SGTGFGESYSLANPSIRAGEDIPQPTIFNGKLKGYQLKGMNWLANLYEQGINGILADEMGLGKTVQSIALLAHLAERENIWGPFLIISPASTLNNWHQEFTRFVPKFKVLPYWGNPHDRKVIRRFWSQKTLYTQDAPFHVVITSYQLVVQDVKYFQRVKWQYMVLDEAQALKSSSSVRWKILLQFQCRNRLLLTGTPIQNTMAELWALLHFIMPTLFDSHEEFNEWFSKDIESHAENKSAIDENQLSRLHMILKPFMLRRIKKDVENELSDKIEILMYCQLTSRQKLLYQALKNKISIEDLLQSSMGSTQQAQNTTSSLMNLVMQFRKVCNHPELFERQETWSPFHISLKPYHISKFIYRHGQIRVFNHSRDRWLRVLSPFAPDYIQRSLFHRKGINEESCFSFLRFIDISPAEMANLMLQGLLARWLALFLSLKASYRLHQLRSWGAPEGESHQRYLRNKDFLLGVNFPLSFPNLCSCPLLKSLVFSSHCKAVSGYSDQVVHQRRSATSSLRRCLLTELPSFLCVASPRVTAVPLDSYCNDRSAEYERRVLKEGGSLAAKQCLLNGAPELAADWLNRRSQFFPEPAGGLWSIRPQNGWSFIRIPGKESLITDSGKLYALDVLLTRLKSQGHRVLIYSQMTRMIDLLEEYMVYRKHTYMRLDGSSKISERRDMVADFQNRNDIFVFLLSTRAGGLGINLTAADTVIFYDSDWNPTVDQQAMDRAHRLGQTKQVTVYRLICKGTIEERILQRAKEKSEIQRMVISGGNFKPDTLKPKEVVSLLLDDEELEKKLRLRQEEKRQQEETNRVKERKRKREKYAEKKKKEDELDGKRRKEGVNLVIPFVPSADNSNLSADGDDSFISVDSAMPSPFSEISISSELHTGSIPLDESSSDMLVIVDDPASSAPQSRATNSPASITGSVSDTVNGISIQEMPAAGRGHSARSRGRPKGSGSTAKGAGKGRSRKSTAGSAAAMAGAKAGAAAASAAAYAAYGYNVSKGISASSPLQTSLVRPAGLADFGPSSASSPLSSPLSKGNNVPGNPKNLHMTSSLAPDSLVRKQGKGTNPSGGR
T2 sequence (Q9Y265 whole entry partner): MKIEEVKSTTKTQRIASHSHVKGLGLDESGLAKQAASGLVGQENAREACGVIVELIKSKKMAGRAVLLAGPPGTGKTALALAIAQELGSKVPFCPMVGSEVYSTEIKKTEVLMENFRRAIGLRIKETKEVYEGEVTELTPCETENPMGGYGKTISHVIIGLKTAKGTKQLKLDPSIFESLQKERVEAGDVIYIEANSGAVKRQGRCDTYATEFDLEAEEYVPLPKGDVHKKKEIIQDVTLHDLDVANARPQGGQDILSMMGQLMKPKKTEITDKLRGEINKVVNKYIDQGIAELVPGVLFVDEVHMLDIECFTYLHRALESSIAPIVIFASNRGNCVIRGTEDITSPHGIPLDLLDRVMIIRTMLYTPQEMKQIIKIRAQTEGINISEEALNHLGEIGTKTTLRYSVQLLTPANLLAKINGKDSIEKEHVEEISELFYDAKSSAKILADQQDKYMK
T2 sequence (Q9Y230 2-463 partner): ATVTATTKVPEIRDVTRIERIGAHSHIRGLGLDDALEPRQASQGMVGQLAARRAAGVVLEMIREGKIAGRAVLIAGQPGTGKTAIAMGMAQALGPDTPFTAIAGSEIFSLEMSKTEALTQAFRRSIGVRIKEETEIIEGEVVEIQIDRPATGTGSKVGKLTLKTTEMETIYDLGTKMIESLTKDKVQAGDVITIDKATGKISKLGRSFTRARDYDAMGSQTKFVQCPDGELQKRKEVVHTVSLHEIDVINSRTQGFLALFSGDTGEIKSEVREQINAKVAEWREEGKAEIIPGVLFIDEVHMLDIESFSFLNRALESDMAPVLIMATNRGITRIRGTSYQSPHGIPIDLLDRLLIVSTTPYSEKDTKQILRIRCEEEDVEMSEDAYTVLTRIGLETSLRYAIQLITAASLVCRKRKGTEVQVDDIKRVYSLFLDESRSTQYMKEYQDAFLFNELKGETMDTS

On to `O=P(O)(O)O[C@H]1[C@H](OP(=O)(O)O)[C@@H](OP(=O)(O)O)[C@H](OP(=O)(O)O)[C@@H](OP(=O)(O)O)[C@H]1OP(=O)(O)O` [IP6], for which the Ki in assay [1] is 37 ± 4 µM.
Take `Nc1ncnc2c1ncn2[C@@H]1O[C@H](COP(=O)(O)OP(=O)(O)OP(=O)(O)O)[C@@H](O)[C@H]1O` [ATP]: the “coupled NADH fluorescence ATPase assay (PK/LDH)” value in assay [2] was “Single point inhibition of Ino80 and SC2”. Besides, the Km in assay [3] was 171 ± 55 µM; in assay [4] it was 326 ± 44 µM.

One may read the Ki as the equilibrium dissociation constant of an inhibitor or competing ligand from its target. Broadly, the Km is the concentration of substrate that gives half-maximal velocity.

The record behind these values is paper PMC5041457, “Synergy and antagonism in regulation of recombinant human INO80 chromatin remodeling complex” (Nucleic Acids Research, 2016).
